Data from patent US20260217767A1, “NOVEL A4B7 THIOETHER PEPTIDE DIMER ANTAGONISTS” (Protagonist Therapeutics, Inc., priority 2014, published 2026).
Where a SMILES comes first, the peptide text is derived from it.

Key:
[1] = Simulated Intestinal Fluid (SIF) Stability Assay; type: in vitro ADME; settings: pig, simulated intestinal fluid (SIF) with 1% porcine pancreatin, pH 6.5, porcine pancreatin, 37° C.; dimers, Table 7
Outline: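 Percent peptide remaining over time was measured by LC-MS/MS as the peak-area ratio to internal standard, and a first-order decay fit gave half-life. Digests contained 22 μM peptide and 1% pancreatin in pH 6.5 FaSSIF buffer at 37° C. Aliquots were quenched in organic solvent with formic acid.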

α4β1 = target: T1, α4β1 (Homo sapiens, UniProt P05556+P13612); assay: α4β1-VCAM Competition ELISA; type: binding; settings: thioether peptide dimers, Table 7; read-out: ELISA A4B1
T1 construct: purchased R&D Systems 5668-A4
T1 sequence (P05556 21-728 limits assumed, one chain of several): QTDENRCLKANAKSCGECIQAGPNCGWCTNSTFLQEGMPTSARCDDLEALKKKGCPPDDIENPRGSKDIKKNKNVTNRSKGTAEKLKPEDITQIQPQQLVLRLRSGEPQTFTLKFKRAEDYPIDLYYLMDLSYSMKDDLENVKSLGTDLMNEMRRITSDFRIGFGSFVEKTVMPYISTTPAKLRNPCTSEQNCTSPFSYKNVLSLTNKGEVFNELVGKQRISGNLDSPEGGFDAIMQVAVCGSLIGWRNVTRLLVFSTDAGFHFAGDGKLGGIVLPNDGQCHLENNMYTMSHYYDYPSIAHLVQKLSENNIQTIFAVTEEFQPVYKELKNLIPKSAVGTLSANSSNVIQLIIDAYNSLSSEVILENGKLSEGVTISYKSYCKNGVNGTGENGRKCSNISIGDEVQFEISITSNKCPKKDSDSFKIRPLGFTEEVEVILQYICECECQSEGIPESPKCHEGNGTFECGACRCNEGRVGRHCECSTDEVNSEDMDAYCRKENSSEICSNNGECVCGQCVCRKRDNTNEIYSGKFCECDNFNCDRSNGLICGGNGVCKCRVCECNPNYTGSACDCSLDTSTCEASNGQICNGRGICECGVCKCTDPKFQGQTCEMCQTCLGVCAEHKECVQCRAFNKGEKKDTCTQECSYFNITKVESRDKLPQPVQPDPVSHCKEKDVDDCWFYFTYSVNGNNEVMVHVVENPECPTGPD
Description: α4β1-VCAM Competition ELISA
A Nunc MaxiSorp plate was coated with rh VCAM-1/CD106 Fc chimera (R&D #862-VC) at 400 ng/well in 50 ul per well in 1×PBS and incubated overnight at 4° C. The solution was removed by shaking and then blocked with 250 ul of 1% BSA in 1×PBS per well. The wells were then incubated at room temperature for 1 hr with shaking. Each well was then washed once with wash buffer (50 mM Tris-HCl pH7.6, 100 mM NaCL, 1 mM MnCl2 or MgCl2, 0.05% Tween-20). 25 ul of serial dilutions of peptides starting at 200 μM in assay buffer (Assay buffer: 50 mM Tris-HCl pH7.6, 100 mM NaCl, 1 mM MnCl2 or MgCl2, 0.05% Tween-20) was added to each well. Additionally, 25 μl of α4β1 (R&D Systems #5668-A4) was added to each well at a fixed concentration of 120 nM. The final peptide and α4β1 concentrations were 100 μM and 60 nM, respectively. The plates were then incubated at 37° C. for 2 hr. The solution was then removed by shaking and each well was washed three times with wash buffer. 50 ul of 9F10 antibody at 4 ug/ml (purified mouse anti-human CD49d, BD Bioscience Cat #555502) was then added to each well, and the plate was incubated at room temperature for Ihr with shaking. The solution was again removed by shaking, and each well was washed three times with wash buffer. 50 μl of peroxidase-conjugated AffiniPure Goat anti-mouse IgG (Jackson immune research cat #115-035-003) diluted in 1:5000 in assay buffer was added to each well. The plate was incubated at room temperature for 30 min with shaking. Each well was then washed 3 times with wash buffer. 100 ul of TMB was then added to each well and closely observe during developing time. The reaction was stepped with 2N H2SO4 and absorbance was read at 450 nm.

RPMI 8866 cells = target: T2, RPMI 8866 cells (Homo sapiens, UniProt P13612+P26010); assay: α4β7-MAdCAM Cell Adhesion Assay; type: cell-based; settings: thioether peptide dimers, Table 7; read-out: Cell-Adhesion A4B7
T2 sequence (P13612 34-1032): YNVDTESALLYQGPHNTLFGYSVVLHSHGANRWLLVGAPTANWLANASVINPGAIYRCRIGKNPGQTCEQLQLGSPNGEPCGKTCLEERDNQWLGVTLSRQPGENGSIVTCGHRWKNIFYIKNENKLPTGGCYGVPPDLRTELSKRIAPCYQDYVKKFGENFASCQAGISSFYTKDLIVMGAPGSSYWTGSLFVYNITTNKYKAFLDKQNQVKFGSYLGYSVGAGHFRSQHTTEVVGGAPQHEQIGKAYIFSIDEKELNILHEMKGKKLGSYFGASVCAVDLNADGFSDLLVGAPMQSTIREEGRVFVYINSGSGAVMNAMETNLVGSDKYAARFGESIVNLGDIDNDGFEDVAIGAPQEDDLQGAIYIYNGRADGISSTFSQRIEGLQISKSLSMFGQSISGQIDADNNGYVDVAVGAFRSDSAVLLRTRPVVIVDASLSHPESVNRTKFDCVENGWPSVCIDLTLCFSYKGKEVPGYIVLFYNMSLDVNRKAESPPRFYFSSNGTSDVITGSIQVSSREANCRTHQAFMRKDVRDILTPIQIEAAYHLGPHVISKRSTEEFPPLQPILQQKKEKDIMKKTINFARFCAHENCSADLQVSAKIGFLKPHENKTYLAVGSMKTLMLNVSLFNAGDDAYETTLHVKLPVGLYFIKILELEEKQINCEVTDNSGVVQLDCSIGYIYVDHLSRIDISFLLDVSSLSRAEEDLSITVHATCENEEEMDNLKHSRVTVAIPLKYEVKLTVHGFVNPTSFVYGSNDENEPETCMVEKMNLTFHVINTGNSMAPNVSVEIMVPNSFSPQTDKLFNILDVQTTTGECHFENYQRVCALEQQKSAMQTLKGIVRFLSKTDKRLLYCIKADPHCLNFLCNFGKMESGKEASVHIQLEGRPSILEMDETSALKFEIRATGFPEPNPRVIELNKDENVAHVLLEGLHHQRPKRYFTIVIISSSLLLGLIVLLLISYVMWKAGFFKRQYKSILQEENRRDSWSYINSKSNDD
T2 sequence (P26010 20-798): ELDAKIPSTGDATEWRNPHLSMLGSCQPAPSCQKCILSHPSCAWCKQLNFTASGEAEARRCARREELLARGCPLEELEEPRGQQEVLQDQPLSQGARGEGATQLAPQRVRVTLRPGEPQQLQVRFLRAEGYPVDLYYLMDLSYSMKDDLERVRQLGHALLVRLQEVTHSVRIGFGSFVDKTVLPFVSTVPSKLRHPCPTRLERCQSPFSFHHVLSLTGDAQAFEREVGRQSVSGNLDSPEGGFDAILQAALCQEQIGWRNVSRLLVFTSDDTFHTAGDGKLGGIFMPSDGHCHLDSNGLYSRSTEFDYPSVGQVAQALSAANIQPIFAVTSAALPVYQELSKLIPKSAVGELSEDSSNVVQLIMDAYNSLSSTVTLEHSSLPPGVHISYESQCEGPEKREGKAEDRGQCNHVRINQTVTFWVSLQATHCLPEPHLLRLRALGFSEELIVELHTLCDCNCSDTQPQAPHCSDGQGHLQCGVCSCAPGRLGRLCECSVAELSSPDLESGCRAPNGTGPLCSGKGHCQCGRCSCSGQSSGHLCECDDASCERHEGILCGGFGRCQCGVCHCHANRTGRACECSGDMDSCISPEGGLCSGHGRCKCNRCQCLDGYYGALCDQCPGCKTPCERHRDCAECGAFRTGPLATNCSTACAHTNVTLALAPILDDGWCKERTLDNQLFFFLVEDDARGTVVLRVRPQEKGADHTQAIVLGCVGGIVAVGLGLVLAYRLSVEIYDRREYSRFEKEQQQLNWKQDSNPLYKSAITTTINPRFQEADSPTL
Outline: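 Peptide inhibition of adhesion measured with MAdCAM-1/Fc chimera immobilised at 200 ng/well and MnCl2-activated (1 mM) RPMI 8866 cells, 30-45 min at 37° C. Adherent cells remaining after three washes detected by MTT reduction at 570 nm, corrected for no-cell wells, giving dose response.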

Jurkat E6.1 cells = Jurkat E6.1 cells (Homo sapiens, UniProt P05556+P13612); assay: α4β1-VCAM Cell Adhesion Assay; type: cell-based; settings: thioether peptide dimers, Table 7; read-out: Cell Adhesion A4B1
Jurkat E6.1 cells, sequence (P05556 21-798, one chain of several): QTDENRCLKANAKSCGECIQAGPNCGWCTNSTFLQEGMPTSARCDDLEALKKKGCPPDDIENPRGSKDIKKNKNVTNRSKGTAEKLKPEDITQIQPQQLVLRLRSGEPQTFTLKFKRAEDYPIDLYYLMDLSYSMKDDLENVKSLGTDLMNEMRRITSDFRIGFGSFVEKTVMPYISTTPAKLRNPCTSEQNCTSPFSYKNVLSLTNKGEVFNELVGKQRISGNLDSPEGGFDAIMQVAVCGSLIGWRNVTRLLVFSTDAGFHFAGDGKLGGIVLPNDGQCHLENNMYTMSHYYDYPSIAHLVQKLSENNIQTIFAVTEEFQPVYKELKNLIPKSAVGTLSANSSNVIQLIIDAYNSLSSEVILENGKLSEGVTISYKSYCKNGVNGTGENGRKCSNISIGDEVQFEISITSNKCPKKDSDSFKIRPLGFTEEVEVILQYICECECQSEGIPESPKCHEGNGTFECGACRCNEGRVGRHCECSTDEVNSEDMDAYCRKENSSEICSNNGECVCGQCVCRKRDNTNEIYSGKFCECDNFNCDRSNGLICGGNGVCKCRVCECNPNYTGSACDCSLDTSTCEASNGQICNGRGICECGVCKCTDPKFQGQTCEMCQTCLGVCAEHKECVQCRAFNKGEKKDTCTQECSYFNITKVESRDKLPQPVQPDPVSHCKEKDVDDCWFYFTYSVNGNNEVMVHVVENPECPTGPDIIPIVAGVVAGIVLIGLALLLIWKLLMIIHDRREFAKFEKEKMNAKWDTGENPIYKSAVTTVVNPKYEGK
Description: α4β1-VCAM Cell Adhesion Assay
Jurkat E6.1 cells (Sigma #88042803) were cultured in RPMI 1640 HEPES medium (Invitrogen #22400-089) supplemented with 10% serum (Fetal Bovine Serum, Invitrogen #16140-071), 1 mM sodium pyruvate (Invitrogen #11360-070), 2 mM L-glutamine (Invitrogen #25030-081) and Penicillin-Streptomycin (Invitrogen #15140-122) at 100 units of penicillin and 100 μg of streptomycin per ml. The cells were washed two times in DMEM medium (ATCC #30-2002) supplemented with 0.1% BSA, 10 mM HEPES pH 7 and 1 mM MnCl2. The cells were re-suspended in supplemented DMEM medium at a density of 4×10^6 cells/ml.
A Nunc MaxiSorp plate was coated with rh VCAM-1/CD106 Fc chimera (R&D #862-VC) at 400 ng per well in 50 μl per well in 1×PBS and incubated at 4° C. overnight. The solution was then removed by shaking, blocked with 250 μl per well PBS containing 1% BSA, and incubated at 37° C. for 1 hr. The solution was removed by shaking. Peptides were diluted by serial dilution in a final volume of 50 μl per well (2× concentration). To each well, 50 μl of cells (200,000 cells) were added and the plate was incubated at 37° C., 5% CO2 for 30-45 min to allow cell adhesion. The wells were washed manually three times (100 μl per wash) with supplemented DMEM. After the final wash, 100 μl/well of supplemented DMEM and 10 ul/well of MTT reagent (ATTC cat #30-1010K) were added. The plate was incubated at 37° C., 5% CO2 for 2-3 hrs until a purple precipitate is visible. 100 ul of Detergent Reagent (ATTC cat #30-1010K) is added to each well. The plate was covered from the light, wrapped in Parafilm to prevent evaporation, and left overnight at room temperature in the dark. The plate was shaken for 5 min and the absorbance at 570 nm is measured. To calculate the dose response, the absorbance value of control wells not containing cells was subtracted from each test well.

SMILES	half-life at 22 μM [1] [h]	IC50 (α4β1) [nM]	IC50 (RPMI 8866 cells) [nM]	IC50 (Jurkat E6.1 cells) [nM]
CC(C)C[C@@H]1NC(=O)[C@H]([C@@H](C)O)NC(=O)[C@H](CC(=O)O)NC(=O)[C@H](CO)NC(=O)[C@H](CCCNC(=N)N)N(C)C(=O)c2ccccc2CSC(C)(C)[C@@H](C(=O)N[C@@H](Cc2c[nH]c3ccccc23)C(=O)N[C@@H](CCC(=O)O)CC(=O)N[C@H](CCCCN)C(N)=O)NC1=O [compound 151] (HELM PEPTIDE1{[meR].S.D.T.L.[Pen].W.[O=C(O)CC[C@@H](CC(=O)[*:2])N[*:1]].[dK].[am]}|CHEM1{[O=C(c1ccccc1C[*:2])[*:1]]}$PEPTIDE1,CHEM1,1:R1-1:R1|PEPTIDE1,CHEM1,6:R3-1:R2$$$V2.0)	> 3	25 to 100	–	–
CC(C)C[C@@H]1NC(=O)[C@H]([C@@H](C)O)NC(=O)[C@H](CC(=O)O)NC(=O)[C@H](CO)NC(=O)[C@H](CCCNC(=N)N)N(C)C(=O)c2ccccc2CSC(C)(C)[C@@H](C(=O)N[C@@H](Cc2c[nH]c3ccccc23)C(=O)N[C@H](CCC(=O)O)C(=O)N[C@@H](CCC(=O)O)C(=O)N[C@H](CCCCN)C(N)=O)NC1=O [compound 194] (HELM PEPTIDE1{[meR].S.D.T.L.[Pen].W.[dE].E.[dK].[am]}|CHEM1{[O=C(c1ccccc1C[*:2])[*:1]]}$PEPTIDE1,CHEM1,1:R1-1:R1|PEPTIDE1,CHEM1,6:R3-1:R2$$$V2.0)	–	100 to 1000	< 25	–
CC(C)C[C@@H]1NC(=O)[C@H]([C@@H](C)O)NC(=O)[C@H](CC(=O)O)NC(=O)[C@H](CO)NC(=O)[C@H](CCCNC(=N)N)N(C)C(=O)c2ccccc2CSC(C)(C)[C@@H](C(=O)N[C@@H](Cc2c[nH]c3ccccc23)C(=O)N[C@H](CCC(=O)O)C(=O)N[C@@H](CO)C(=O)N[C@H](CCCCN)C(N)=O)NC1=O [compound 191] (HELM PEPTIDE1{[meR].S.D.T.L.[Pen].W.[dE].S.[dK].[am]}|CHEM1{[O=C(c1ccccc1C[*:2])[*:1]]}$PEPTIDE1,CHEM1,1:R1-1:R1|PEPTIDE1,CHEM1,6:R3-1:R2$$$V2.0)	–	–	< 25	> 100000
CC(C)C[C@@H]1NC(=O)[C@H]([C@@H](C)O)NC(=O)[C@H](CC(=O)O)NC(=O)[C@H](CO)NC(=O)[C@H](CCCNC(=N)N)N(C)C(=O)c2ccccc2CSC(C)(C)[C@@H](C(=O)N[C@@H](Cc2ccc3ccccc3c2)C(=O)N[C@@H](CCC(=O)O)CC(=O)N[C@H](CCCCN)C(N)=O)NC1=O [compound 161]	> 3	25 to 100	–	> 100000
CC(C)C[C@@H]1NC(=O)[C@H]([C@@H](C)O)NC(=O)[C@H](CC(=O)O)NC(=O)[C@H](CO)NC(=O)[C@H](CCCNC(=N)N)N(C)C(=O)c2ccccc2CSC(C)(C)[C@@H](C(=O)N[C@@H](Cc2ccc(O)cc2)C(=O)N[C@@H](CCC(=O)O)C(=O)N[C@H](CCCCN)C(N)=O)NC1=O [compound 168] (HELM PEPTIDE1{[meR].S.D.T.L.[Pen].Y.E.[dK].[am]}|CHEM1{[O=C(c1ccccc1C[*:2])[*:1]]}$PEPTIDE1,CHEM1,1:R1-1:R1|PEPTIDE1,CHEM1,6:R3-1:R2$$$V2.0)	–	25 to 100	–	> 100000
